The source of these data is patent publication US5972357A, “Healthy foods and cosmetics” (Kikkoman Corporation, priority 1996, dated 1999).

A short description of data set [1]: anti-oxidation activity (linoleic acid/β-carotene emulsion, autoxidation). The following applies: 0.0005% test substance, pH 7.0, 25° C., 460 nm; lesser ratio = stronger. Here is the method:
The anti-oxidation activities was evaluated according to the method by A. Ben Aziz et al. […] That is to say, an emulsion of linoleic acid and β-carotene was first prepared with Tween 20 (Sigma) and adjusted to pH 7.0 with 0.1 M trishydroxyaminomethane-hydrochloride. […] During the reaction, the color degradation of β-carotene in association with the autoxidation of linoleic acid was measured with the passage of time as the decreased value of the optical density at 460 nm with a spectrophotometer. […] The antioxidant activity was measured as a ratio of the decreasing rate of absorbance in the presence of the substance to be tested to the decreasing rate of absorbance in the absence of the antioxidant.

The nature of data set [2]: anti-oxidation activity in a lipid oxidation process promoted by a metal ion (copper sulfate). The following applies: 5 μM copper sulfate added; lesser ratio = stronger. As to the method:
The anti-oxidation activities was evaluated according to the method by A. Ben Aziz et al. (see Phytochemistry, 10, 1445, 1971). That is to say, an emulsion of linoleic acid and β-carotene was first prepared with Tween 20 (Sigma) and adjusted to pH 7.0 with 0.1 M trishydroxyaminomethane-hydrochloride. To the emulsion was added 0.0005% of a substance to be tested, and the mixture was reacted at 25° C.
During the reaction, the color degradation of β-carotene in association with the autoxidation of linoleic acid was measured with the passage of time as the decreased value of the optical density at 460 nm with a spectrophotometer.
The substance to be tested was a garcinal preparation obtained in Referential Example 1, and vitamin E and (+)-catechin were used as Comparative Example. The antioxidant activity was measured as a ratio of the decreasing rate of absorbance in the presence of the substance to be tested to the decreasing rate of absorbance in the absence of the antioxidant. That is, the substance is judged to have an antioxidant activity when the ratio is less than 1, and thus it is predicated that the lesser the ratio, the stronger the antioxidant activity.
The oxidation process of linoleic acid in Experimental Example 1 is promoted by a metal ion. If 5 μM of copper sulfate is added to the reaction system, the color-degradation rate of β-carotene is promoted by about 30%. When garcinol was added to this system, the ratio of the decreasing rate of absorbance was 0.57. In this connection, it was 0.13 for vitamin E and 0.84 for (+)-catechin.

Data set [3] is described as follows: superoxide scavenging activity test with phenazine methosulfate. As to conditions: 40 μM final concentration. Here is the method:
The active oxygen scavenging activity was evaluated according to the superoxide scavenging activity test with phenazine methosulfate. That is to say, dihydronicotinamide adenine dinucleotide and phenazine methosulfate were first reacted in a buffer at a physiological hydrogen ion concentration. The absorbance at 560 nm of a formazan pigment produced by the reduction of Nitro Blue Tetrazolium with superoxide was measured. […] The ratio of decreases of absorbance was expressed as superoxide scavenging activity.

Data set [4] relates to bovine lens α-crystallin. The data set is described as follows: α-crystallin crosslinking polymerization inhibiting activity. The following applies: 0.1 mM, 500 mM D-fructose, pH 7.4, 37° C., 2 weeks. It counts as biochemical. Here is the method:
The effect of garcinol on bovine lens α-crystallin crosslinking polymerization reaction was evaluated. […] The gel after electrophoresis was stained with Coomassie Brilliant Blue, and the protein amounts in bands were determined with a densitometer. The crosslinking polymerization inhibiting activity of the protein was calculated from the following equation.
Protein polymerization inhibiting activity (%)=(Ps-Pc)/Pc×100
polymerization degree of protein=band density of polymerized protein/band density of monomer protein;
Ps: polymerization degree of protein in the presence of test substance;
Pc: polymerization degree of protein in the absence of test substance.

Data set [5] has as its system Epstein-Barr virus early antigen (EBV-EA). Nature of the data set: EBV-EA induction inhibiting test (tumor promotion inhibition). It counts as cell-based, human lymphoblasts (Raji). As to conditions: Homo sapiens, Raji; 8 μg/ml; 3 mM n-butyric acid, 50 nM TPA, 37° C., 48 hours; read-out: suppression of the induction of EBV-EA. Here is the method:
The effect of inhibiting the tumor promotion was evaluated as follows mainly according to the EBV-EA induction inhibiting test described by Y. Ito et al.
The EBV potentially infected human lymphoblasts (Raji) were first prepared in a concentration of 5×10^5 cell/ml, and cultured in an RPMI-1640 medium to which 3 mM n-butyric acid (inducer) and 50 nM TPA (12-O-tetradecanoylphorbol-13-acetate) (promoter) were added in an atmosphere of 5% carbon dioxide and 95% air under at a temperature of 37° C. for 48 hours. The cells in which EBV-EA had been induced were detected microscopically by indirect immunofluorescence with the serum of a nasopharyngeal carcinoma (NPC) patient. In this system, various concentrations (8 μg/ml, 40 μg/ml, and 200 μg/ml) of the test substance (garcinol sample shown in Referential Example 1) dissolved in DMSO (dimethylsolfoxide) were added together with the promoter to the cells. The activity of suppressing the induction of the Epstein-Barr virus early antigen was defined as the decreasing rate of the cells in which EBV-EA had been induced.

Data set [6] has as its system gastric ulcer. The data set is described as follows: anti-ulcer test against stress ulcer (restrained immersion into water). The data set is classed as in vivo, Wistar/ST male rats. As to conditions: 200 mg/kg oral. As to the method:
Gastric ulcer was induced in Wistar/ST male rats having a weight of about 200 g (6 w) by the stress of restrained immersion into water and the anti-ulcer effects of the test samples were examined in the following groups to which test samples were administered.
Each group comprises six rats.
Group 1: (control) physiological saline
Group 2: (comparative) cetraxate hydrochloride 200 mg/kg
Group 3: (the present invention) garcinol 200 mg/kg
In this connection, the test samples in the control, comparative group and the present invention group were prepared in the same manner as in Experimental Example 9.
Rats having fasted for 24 hours were locked up in a restrained dipping cage after 30 minutes from the oral administration of respective test samples. Next, rats were stressed by dipping the cage into water at 23° C. for 7 hours, and bleeded to death under anesthetization with nembutal, and stomach was isolated. A phosphate buffer (10 ml) containing 10% formalin was injected into the stomach, which was cut open after 10 minutes, and the length of lesion caused in the glandular stomach portion was defined as the lesion index, which was measured in the mm unit to evaluate the anti-ulcer effect.
The method for calculating the suppression rate (%) and the meaning of it has been described in Experimental Example 9.

Data set [7] relates to bovine serum albumin. Nature of the data set: Maillard reaction inhibiting activity (bovine serum albumin/D-fructose). The following applies: 0.1 mM, 37° C., 5 days, pH 7.4.
Protocol: A solution containing bovine serum albumin (4 mg/ml), 500 mM D-fructose and 200 mM potassium phosphate buffer (pH 7.4) was aseptically prepared. To the solution was added 0.1 mM of a test substance. The substance insoluble in water was added as an ethanolic solution so as the final concentration of ethanol to be less than 1%. After incubation of these solutions at 37° C. for 5 days, equivalent volume of a cold 10% trichloroacetic acid solution was added to the solution to precipitate proteins. The precipitate was collected by centrifugation, further washed with a cold 5% trichloroacetic acid solution, and dissolved again in a 200 mM potassium phosphate buffer. The solution was diluted appropriately with distilled water, and the fluorescence intensity at 425 nm was measured with an excitation wave length at 350 nm in a fluorescence spectrophotometer (Shimadzu Seisakusho, Ltd.). The inhibition activity was calculated from the following equation.
Inhibition activity (%)=(Fc-Fs)/(Fc-Fb)×100
Fs: fluorescence intensity in the presence of test substance;
Fc: fluorescence intensity in the absence of test substance;
Fb: fluorescence intensity in the absence of fructose.

Take `C=C(C)[C@@H](CC=C(C)C)C[C@@]12C[C@@H](CC=C(C)C)C(C)(C)[C@@](CC=C(C)C)(C(=O)C(C(=O)c3ccc(O)c(O)c3)=C1O)C2=O` [garcinol]: the “antioxidant activity (ratio of the decreasing rate of absorbance with to without test substance)” value in data set [1] is 0.50. For the same compound, in data set [2], the “ratio of the decreasing rate of absorbance (antioxidant activity with metal ion)” value is 0.57. In data set [3], the superoxide scavenging rate was found to be 75%. Moreover, the “protein polymerization inhibiting activity” value in data set [4] is 68%. Moreover, in data set [5], the inhibition at 8 µg/mL turned out to be 58.2%. Also, in data set [6] (restrained water immersion 23° C., 7 hours, control 44.20 ± 18.10), the Length of ulcer is recorded as 17.60 ± 9.96 mm. In data set [6] (stress ulcer, vs. control), this compound yielded a Suppression rate of 60.2%. In addition, in data set [7], the “Maillard reaction inhibition activity” value came out at 97%.
